Data: US6538145B2, “24-hydroxy vitamin D derivatives” (Chugai Seiyaku Kabushiki Kaisha, priority 1998, dated 2003)

Biological target: T1, vitamin D receptor derived from chick intestine (Gallus gallus, UniProt O42392)
T1 construct: vitamin D receptor derived from chick intestine; from tissue; host or cells: chick intestine
T1 sequence (O42392 1-451): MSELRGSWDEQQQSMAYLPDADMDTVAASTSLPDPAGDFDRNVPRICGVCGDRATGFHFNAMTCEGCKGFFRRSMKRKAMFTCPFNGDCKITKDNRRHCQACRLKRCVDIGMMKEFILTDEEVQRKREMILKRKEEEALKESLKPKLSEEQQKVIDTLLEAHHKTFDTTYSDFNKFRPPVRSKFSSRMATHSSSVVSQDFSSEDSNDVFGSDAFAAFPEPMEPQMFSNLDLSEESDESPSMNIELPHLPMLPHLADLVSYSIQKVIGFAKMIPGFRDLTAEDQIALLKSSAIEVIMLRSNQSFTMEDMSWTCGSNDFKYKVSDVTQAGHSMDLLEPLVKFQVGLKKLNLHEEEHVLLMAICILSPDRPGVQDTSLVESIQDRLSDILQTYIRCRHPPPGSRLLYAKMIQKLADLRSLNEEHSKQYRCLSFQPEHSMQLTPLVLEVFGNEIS
Assay: Assay for binding to vitamin D receptor (VDR), radio receptor assay (RRA)
Conditions: competition with 3H-1α,25-dihydroxyvitamin D3; test compound 1 to 100,000 nM; 4° C. for 3 hours; result in words only
Description: By the radio receptor assay (RRA), compounds 1a and 1b of the present invention were tested for their ability to bind to vitamin D receptor derived from chick intestine.
^3H-1α,25-dihydroxyvitamin D3 was dissolved in ethanol (20 μl) at a concentration of 10,000 dpm. Three test compounds, 1α,25-dihydroxyvitamin D3, compound la and compound 1b, were diluted with ethanol to give concentrations in the range of from 1 to 100,000 nM, respectively.
To each of small tubes, 20 μl of ^3H-1α,25 -dihydroxyvitamin D3 in solution and 50 μl of a test compound (i.e., 1α,25-dihydroxyvitamin D3, compound 1a or compound 1b) in solution were added. A solution of vitamin D receptor was prepared by dissolving 25 mg of VDR in 70 ml of 0.05M phosphate buffer solution containing 0.3 M KCl and 5 mM DTT (dithiothreitol) and 0.5 ml of the resulting solution was added to each tube, followed by mixing. […] To 0.5 ml of the supernatant, 5 ml of liquid scintillator was added for radioactivity measurement. The B/B0 value was calculated from the measurements (B: radioactivity measured in the presence of a test compound, B0: radioactivity measured in the absence of the test compound).

Compound: C=C1C(=CC=C2CCCC3(C)C2CCC3C(C)CCC(O)C(C)(C)O)CC(O)C(OCCCO)C1O [Compound 1a, (5Z,7E)-(1R,2R,3R,24S)-2-(3-hydroxypropoxy)-9,10-secocholesta-5,7,10(19)-triene-1,3,24,25-tetraol]
- affinity for the vitamin D receptor (B/B0, FIG. 1): show affinity for the vitamin D receptor
